Literature values in article PMC9301952 (ACS Omega, 2022).

Tested on: mouse
Conditions: behavioral assay used to predict psychedelic drug activity

Structure (SMILES)	activity in the mouse head twitch assay
CNCCc1c[nH]c2cccc(OP(=O)(O)O)c12 [baeocystin, 4-phosphoryloxy-N-methyltryptamine]	neither compound is active
CNCCc1c[nH]c2cccc(O)c12 [norpsilocin, 4-hydroxy-N-methyltryptamine]	neither compound is active
